We go through four compounds from patent US10039759B2, “Quinolines as FGFR kinase modulators” (priority 2011, dated 2018).

Molecules are shown by their SMILES. Bounds are passed on as bounds.

The test system of data set [1] is Ba/F3-FGFR3-transfected cells. Briefly: Ba/F3-FGFR3 (minus IL3 or plus IL3) cellular proliferation assay, Alamar Blue. The note with it: plus IL3 (10 ng/ml murine IL3, counterscreen); 24 hours, Alamar Blue; read-out: BAF3-FGFR3 (PLUS IL3 Alamar Blue pIC50) (converted). It counts as cell-based. On the procedure:
(§1) Ba/F3-FGFR3 (Minus IL3 or Plus IL3) (Cellular Proliferation Assay)
(§2) In a 384 well plate, 100 nl of compound dilution in DMSO was sprayed before adding 50 μl cell culture medium (phenol red free RPMI-1640, 10% FBS, 2 mM L-Glutamine and 50 μg/ml Gentamycin) containing 20000 cells per well of Ba/F3-FGFR3-transfected cells. Cells were put in an incubator at 37° C. and 5% CO2. After 24 hours, 10 μl of Alamar Blue solution (0.5 mM K3Fe(CN)6, 0.5 mM K4Fe(CN)6, 0.15 mM Resazurin and 100 mM Phosphate Buffer) was added to the wells, incubated for 4 hours at 37° C. and 5% CO2 before RFU's (Relative Fluorescence Units) (ex. 540 nm., em. 590 nm.) were measured in a fluorescence plate reader.
(§3) In this assay, the inhibitory effect of different compound concentrations (range 10 μM to 0.1 nM) was determined and used to calculate an IC50 (M) and pIC50 (−log IC50) value. As a counterscreen the same experiment was performed in the presence of 10 ng/ml murine IL3.
A general note: Alamar Blue is a resazurin reagent that responds to reducing activity.

Data set [2] addresses T1, Ba/F3-FGFR3-transfected cells (Homo sapiens, UniProt P22607, cells depend on it, form not given).
T1 construct: BAF3-FGFR3 (MIN IL3 Alamar Blue- pIC50); other: minus IL3; 24 hours, Alamar Blue
The description is as above. It counts as cell-based. Conditions: minus IL3; 24 hours, Alamar Blue. On the procedure: as §1, §2, §3

Data set [3] has as its target Ba/F3-FGFR4-transfected cells (Homo sapiens, UniProt P22455). Put plainly: Ba/F3-FGFR4 cellular proliferation assay, Alamar Blue. It counts as cell-based. The note with it: 24 hours. On the procedure:
Ba/F3-FGFR4 (Cellular Proliferation Assay)
as §2, with “Ba/F3-FGFR4-transfected” for “Ba/F3-FGFR3-transfected”
In this assay, the inhibitory effect of different compound concentrations (range 10 μM to 0.1 nM) was determined and used to calculate an IC50 (M) and pIC50 (−log IC50) value.

The target of data set [4] is FGFR2 (h) (Homo sapiens, UniProt P21802). Briefly: FGFR2 (enzymatic assay), TR-FRET. Conditions: 0.4 μM ATP, 60 min; pIC50 = -log IC50 (M); average if tested multiple times; read-out: FGFR 2 pIC50 (converted). Format: biochemical. A general note: TR-FRET usually uses a lanthanide donor and a delayed reading to cut background.
Data set [5] addresses FGFR3 (h) (Homo sapiens, UniProt P22607). Briefly: FGFR3 (enzymatic assay), TR-FRET. Format: biochemical. The note with it: 25 μM ATP, 60 min; pIC50 = -log IC50 (M); average if tested multiple times; read-out: hFGFR 3 pIC50 (converted).
The target in data set [6] is FGFR4 (h) (Homo sapiens, UniProt P22455). Briefly: FGFR4 (enzymatic assay), TR-FRET. Format: biochemical. Conditions: FGFR 4 pIC50, 5 μM ATP, 60 min; pIC50 = -log IC50 (M); average if tested multiple times.
Data set [7] concerns the target KDR (h) (Homo sapiens, UniProt P35968). Briefly: KDR (VEGFR2) (enzymatic assay), TR-FRET. It counts as biochemical. The note with it: 3 μM ATP, 120 min; pIC50 = -log IC50 (M); average if tested multiple times; read-out: VEGFR KDR pIC50 (converted). On the procedure: KDR (VEGFR2) (Enzymatic Assay)
In a final reaction volume of 30 μL, KDR (h) (150 ng/ml) was incubated with 50 mM HEPES pH 7.5, 6 mM MnCl2, 1 mM DTT, 0.1 mM Na3VO4, 0.01% Triton-X-100, 500 nM Btn-Flt3 and 3 μM ATP in the presence of compound (1% DMSO final). After incubation for 120 minutes at room temperature the reaction was stopped with 2.27 nM EU-anti P-Tyr, 7 mM EDTA, 31.25 nM SA-XL-665 and 0.02% BSA which was present for 60 minutes at room temperature. Time-Resolved Fluorescence Resonance Energy Transfer (TR-FRET) signal (ex340 nm. Em 620 nm, em 655 nm) was measured afterwards and results are expressed in RFU (Relative Fluorescence Units). In this assay, the inhibitory effect of different compound concentrations (range 10 μM to 0.1 nM) was determined and used to calculate an IC50 (M) and pIC50 (−log IC50) value.

Data set [8] concerns the target FGFR1 (h) (Homo sapiens, UniProt P11362). Put plainly: FGFR1 (enzymatic assay), TR-FRET. The note with it: FGFR 1 pIC50, 5 μM ATP, 60 min; pIC50 = -log IC50 (M); average if tested multiple times. It counts as biochemical.
Data set [9] has as its target T2, Ba/F3-KDR-transfected cells (Homo sapiens, UniProt P35968, cells depend on it, form not given).
T2 construct: BAF3-KDR (MIN IL3 Alamar Blue pIC50); other: minus IL3; 24 hours, Alamar Blue
Put plainly: Ba/F3-KDR (minus IL3 or plus IL3) cellular proliferation assay, Alamar Blue. It counts as cell-based. The note with it: minus IL3; 24 hours, Alamar Blue. On the procedure: (§4) Ba/F3-KDR (Minus IL3 or Plus IL3) (Cellular Proliferation Assay)
as §2, with “Ba/F3-KDR-transfected” for “Ba/F3-FGFR3-transfected”
as §3

Data set [10] has as its system Ba/F3-KDR-transfected cells. Described as above. It counts as cell-based. The note with it: plus IL3 (10 ng/ml murine IL3, counterscreen); 24 hours, Alamar Blue; read-out: BAF3-KDR (PLUS IL3 Alamar Blue pIC50) (converted). On the procedure:
as §4
as §2, with “Ba/F3-KDR-transfected” for “Ba/F3-FGFR3-transfected”
as §3
(In general: Counterscreens check selectivity or assay interference.)

Data set [11] deals with T3, Ba/F3-FGFR1-transfected cells (Homo sapiens, UniProt P11362, cells depend on it, form not given).
T3 construct: other: minus IL3; 24 hours, Alamar Blue
Briefly: Ba/F3-FGFR1 (minus IL3 or plus IL3) cellular proliferation assay, Alamar Blue. Format: cell-based. The note with it: minus IL3, 24 hours. On the procedure: Ba/F3-FGFR1 (Minus IL3 or Plus IL3) (Cellular Proliferation Assay)
as §2, with “Ba/F3-FGFR1-transfected” for “Ba/F3-FGFR3-transfected”
as §3

Chain of FGFR3 (h) (P22607 23-806): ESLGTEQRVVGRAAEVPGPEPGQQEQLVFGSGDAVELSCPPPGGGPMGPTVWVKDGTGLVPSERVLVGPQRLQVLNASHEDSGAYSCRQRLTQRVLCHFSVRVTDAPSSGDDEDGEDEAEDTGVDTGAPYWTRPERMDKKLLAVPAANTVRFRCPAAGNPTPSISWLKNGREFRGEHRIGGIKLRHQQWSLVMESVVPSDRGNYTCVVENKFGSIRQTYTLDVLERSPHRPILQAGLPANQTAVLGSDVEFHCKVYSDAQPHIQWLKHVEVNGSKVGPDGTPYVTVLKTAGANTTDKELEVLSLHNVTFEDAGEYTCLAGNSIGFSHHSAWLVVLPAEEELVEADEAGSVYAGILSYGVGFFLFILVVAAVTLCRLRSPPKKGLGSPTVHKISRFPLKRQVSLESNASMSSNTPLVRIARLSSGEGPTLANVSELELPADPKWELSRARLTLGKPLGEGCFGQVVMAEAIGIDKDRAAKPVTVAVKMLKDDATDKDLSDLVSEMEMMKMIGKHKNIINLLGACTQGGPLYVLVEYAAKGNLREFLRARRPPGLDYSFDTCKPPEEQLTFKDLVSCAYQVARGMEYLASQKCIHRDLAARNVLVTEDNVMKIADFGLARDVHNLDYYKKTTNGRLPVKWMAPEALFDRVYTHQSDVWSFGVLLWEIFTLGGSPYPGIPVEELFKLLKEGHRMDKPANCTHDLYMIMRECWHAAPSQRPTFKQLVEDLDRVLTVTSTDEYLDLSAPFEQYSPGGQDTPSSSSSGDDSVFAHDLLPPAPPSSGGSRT
Chain of FGFR4 (h) (P22455 22-802): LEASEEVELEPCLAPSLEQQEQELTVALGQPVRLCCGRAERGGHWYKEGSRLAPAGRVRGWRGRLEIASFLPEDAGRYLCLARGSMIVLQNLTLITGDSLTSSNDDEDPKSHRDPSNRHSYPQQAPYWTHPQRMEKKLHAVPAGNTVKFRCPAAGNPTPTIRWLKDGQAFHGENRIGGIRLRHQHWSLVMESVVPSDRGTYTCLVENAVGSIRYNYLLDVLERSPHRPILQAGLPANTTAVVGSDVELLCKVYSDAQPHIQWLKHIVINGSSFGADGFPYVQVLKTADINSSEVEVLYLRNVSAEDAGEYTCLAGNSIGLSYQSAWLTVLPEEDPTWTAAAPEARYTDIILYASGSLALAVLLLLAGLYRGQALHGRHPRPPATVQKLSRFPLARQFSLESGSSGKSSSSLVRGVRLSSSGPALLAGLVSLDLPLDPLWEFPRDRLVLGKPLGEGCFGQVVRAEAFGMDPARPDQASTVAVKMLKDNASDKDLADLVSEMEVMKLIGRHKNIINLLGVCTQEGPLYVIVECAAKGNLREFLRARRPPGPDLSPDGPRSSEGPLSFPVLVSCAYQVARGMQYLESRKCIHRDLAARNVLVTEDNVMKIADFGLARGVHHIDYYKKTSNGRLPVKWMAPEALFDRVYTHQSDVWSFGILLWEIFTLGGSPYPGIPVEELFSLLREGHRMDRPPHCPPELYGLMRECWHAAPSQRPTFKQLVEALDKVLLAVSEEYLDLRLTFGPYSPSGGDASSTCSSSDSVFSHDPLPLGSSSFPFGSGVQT
Chain of Ba/F3-FGFR4-transfected cells (P22455 whole entry, change not shown): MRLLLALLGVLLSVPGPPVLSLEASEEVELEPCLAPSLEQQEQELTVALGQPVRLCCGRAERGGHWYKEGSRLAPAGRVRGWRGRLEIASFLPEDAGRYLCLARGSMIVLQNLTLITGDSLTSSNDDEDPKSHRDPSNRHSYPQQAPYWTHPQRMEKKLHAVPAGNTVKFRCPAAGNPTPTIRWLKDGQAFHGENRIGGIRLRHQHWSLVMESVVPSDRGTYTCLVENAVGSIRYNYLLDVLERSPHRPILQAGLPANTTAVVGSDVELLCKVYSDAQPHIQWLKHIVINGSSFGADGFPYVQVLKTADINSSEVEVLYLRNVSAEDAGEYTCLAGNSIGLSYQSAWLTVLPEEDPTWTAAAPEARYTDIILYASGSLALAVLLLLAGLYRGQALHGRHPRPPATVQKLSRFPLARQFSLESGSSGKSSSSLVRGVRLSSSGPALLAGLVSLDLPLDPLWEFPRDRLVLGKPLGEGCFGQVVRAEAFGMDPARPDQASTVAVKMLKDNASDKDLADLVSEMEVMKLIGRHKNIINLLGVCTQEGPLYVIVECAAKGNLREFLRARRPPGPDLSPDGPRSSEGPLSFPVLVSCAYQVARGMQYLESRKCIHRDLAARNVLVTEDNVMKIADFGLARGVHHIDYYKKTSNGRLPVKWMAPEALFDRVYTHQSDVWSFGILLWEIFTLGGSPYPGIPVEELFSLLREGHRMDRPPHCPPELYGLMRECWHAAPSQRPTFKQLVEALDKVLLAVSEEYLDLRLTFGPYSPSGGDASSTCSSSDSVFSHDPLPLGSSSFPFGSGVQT
T1 sequence (P22607 whole entry, change not shown): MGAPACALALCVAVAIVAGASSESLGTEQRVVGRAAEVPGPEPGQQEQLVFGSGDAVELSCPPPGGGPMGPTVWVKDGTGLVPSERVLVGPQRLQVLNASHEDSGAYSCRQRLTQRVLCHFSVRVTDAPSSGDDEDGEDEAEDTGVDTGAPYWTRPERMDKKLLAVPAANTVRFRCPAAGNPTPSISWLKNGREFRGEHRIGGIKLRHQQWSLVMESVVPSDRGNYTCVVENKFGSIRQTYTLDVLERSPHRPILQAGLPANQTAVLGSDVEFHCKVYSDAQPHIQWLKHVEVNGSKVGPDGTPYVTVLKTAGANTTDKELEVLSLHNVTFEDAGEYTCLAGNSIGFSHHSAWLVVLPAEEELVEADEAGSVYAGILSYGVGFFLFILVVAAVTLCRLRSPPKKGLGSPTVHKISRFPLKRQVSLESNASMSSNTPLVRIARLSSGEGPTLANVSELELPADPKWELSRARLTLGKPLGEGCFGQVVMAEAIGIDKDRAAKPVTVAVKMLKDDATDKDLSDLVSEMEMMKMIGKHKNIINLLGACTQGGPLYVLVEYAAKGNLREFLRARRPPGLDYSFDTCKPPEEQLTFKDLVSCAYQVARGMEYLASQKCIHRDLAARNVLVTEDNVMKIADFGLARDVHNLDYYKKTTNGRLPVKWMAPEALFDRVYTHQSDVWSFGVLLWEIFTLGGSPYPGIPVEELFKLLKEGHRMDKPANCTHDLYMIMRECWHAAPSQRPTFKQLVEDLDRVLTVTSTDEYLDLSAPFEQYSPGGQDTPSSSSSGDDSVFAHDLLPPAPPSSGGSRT
Chain of FGFR1 (h) (P11362 22-822): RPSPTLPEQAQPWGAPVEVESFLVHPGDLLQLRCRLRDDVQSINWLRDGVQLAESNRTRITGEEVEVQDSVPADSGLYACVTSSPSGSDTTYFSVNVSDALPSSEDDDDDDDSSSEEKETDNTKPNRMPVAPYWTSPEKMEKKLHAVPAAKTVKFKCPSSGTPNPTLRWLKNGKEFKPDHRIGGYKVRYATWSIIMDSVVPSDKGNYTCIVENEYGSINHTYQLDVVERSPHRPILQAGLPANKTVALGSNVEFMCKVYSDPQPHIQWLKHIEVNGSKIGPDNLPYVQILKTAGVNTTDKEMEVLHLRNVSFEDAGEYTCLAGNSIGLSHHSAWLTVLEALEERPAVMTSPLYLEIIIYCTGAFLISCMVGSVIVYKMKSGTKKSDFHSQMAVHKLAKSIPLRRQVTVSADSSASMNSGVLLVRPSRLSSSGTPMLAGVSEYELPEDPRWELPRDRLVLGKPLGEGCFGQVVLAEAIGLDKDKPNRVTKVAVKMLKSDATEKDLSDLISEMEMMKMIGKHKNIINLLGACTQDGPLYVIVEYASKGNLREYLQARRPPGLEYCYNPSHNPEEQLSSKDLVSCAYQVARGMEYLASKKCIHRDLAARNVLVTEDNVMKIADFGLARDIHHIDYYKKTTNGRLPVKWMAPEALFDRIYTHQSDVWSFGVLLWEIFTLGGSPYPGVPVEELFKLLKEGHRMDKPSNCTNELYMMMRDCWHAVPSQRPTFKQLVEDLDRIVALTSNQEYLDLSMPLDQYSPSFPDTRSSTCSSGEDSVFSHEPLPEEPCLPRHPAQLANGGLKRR
Chain of FGFR2 (h) (P21802 22-821): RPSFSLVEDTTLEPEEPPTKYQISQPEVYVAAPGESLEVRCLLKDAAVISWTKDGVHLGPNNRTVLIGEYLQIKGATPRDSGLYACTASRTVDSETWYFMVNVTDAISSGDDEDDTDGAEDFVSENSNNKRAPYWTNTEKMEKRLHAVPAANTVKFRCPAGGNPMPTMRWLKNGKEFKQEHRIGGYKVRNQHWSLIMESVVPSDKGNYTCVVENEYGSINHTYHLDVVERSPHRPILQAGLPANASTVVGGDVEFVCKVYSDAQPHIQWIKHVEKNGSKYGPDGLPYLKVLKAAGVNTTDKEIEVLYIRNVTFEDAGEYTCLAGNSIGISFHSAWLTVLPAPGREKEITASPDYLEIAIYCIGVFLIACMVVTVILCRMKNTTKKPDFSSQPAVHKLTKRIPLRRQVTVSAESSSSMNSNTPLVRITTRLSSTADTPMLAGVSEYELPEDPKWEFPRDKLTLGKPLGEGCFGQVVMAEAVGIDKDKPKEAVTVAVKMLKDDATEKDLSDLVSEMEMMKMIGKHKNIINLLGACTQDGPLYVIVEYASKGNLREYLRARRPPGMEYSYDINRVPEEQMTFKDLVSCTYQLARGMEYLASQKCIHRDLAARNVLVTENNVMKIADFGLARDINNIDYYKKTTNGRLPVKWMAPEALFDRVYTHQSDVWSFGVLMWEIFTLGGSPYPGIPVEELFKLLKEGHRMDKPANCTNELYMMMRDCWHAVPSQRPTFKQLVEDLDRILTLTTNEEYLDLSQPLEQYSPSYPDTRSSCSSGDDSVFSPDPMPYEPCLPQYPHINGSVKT

In the case of `COc1cc(OC)c(F)c(N(CCNC(C)C)c2ccc3ncc(-c4cnn(C)c4)cc3c2)c1F` [Compound 42], the melting point worked out at 75 °C. Also, in data set [1], the IC50 is above 10000 nM. Besides, in data set [2], the “BAF3-FGFR3 (MIN IL3 Alamar Blue- pIC50)” value was 8.25. Besides, in [3], the “BAF3-FGFR 4 (pIC50)” value was found to be 8.25. For the same compound, the IC50 in [4] was 3.16e-09 M. Besides, the IC50 in data set [5] was 3.39e-09 M. Besides, in data set [6], the IC50 was 2.88e-09 M. For the same compound, the IC50 in data set [7] was 1.58e-08 M. Also, the IC50 in data set [8] is 1.15e-09 M. Further, in [9], the “BAF3-KDR (MIN IL3 Alamar Blue pIC50)” value worked out at 6.95. Also, the IC50 in data set [10] is above 10000 nM. The “BAF3-FGFR1 (MIN IL3 pIC50)” value in data set [11] is 8.95.

Consider `COc1cc(OC)cc(N(CCO)c2ccc3ncc(-c4ccccc4)cc3c2)c1` [Compound 50], for which the melting point came to 111 °C. Moreover, the IC50 in data set [1] is above 10000 nM. Also, the “BAF3-FGFR3 (MIN IL3 Alamar Blue- pIC50)” value in [2] is given as 5.19. Besides, in data set [3], the “BAF3-FGFR 4 (pIC50)” value is given as below 5. For the same compound, the IC50 in data set [4] was 5.5e-08 M. For the same compound, the IC50 in data set [5] is 5.75e-08 M. The compound also showed an IC50 in data set [6] of 2.57e-07 M. For the same compound, in data set [7], the IC50 is above 1e-06 M. Further, the IC50 in [8] is 6.92e-08 M. The “BAF3-KDR (MIN IL3 Alamar Blue pIC50)” value in data set [9] was below 5. Further, the IC50 in [10] is above 10000 nM. Besides, in data set [11], the “BAF3-FGFR1 (MIN IL3 pIC50)” value is given as 5.11.

Compound `COc1cc(OC)cc(N(Cc2ncc[nH]2)c2ccc3ncc(-c4ccccc4)cc3c2)c1` [Compound 52] registered a melting point of 133 °C. Besides, the “BAF3-FGFR3 (MIN IL3 Alamar Blue- pIC50)” value in [2] came out at 6.00. Besides, the “BAF3-FGFR 4 (pIC50)” value in data set [3] was found to be 5.48. Besides, the IC50 in data set [4] is 6.61e-09 M. Moreover, the IC50 in [5] is 8.51e-09 M. For the same compound, in [6], the IC50 is 1.66e-08 M. In addition, the IC50 in data set [7] was 9.33e-07 M. The compound further gave an IC50 in data set [8] of 1.58e-08 M. The “BAF3-KDR (MIN IL3 Alamar Blue pIC50)” value in data set [9] is below 5. Further, the “BAF3-FGFR1 (MIN IL3 pIC50)” value in data set [11] was found to be 5.77.

Regarding `COc1cc(OC)cc(N(CCO)c2ccc3ncc(-c4ccn(C)c4)cc3c2)c1` [Compound 61], the melting point worked out at 158 °C. In data set [1], the IC50 was above 10000 nM. The “BAF3-FGFR3 (MIN IL3 Alamar Blue- pIC50)” value in data set [2] came out at 5.84. Moreover, the “BAF3-FGFR 4 (pIC50)” value in data set [3] is given as 5.66. Further, in data set [4], the IC50 was around 1.26e-08 M. In addition, the IC50 in data set [5] was 2.69e-09 M. Besides, the IC50 in [6] is 2.09e-08 M. Also, the IC50 in data set [7] is 1.91e-07 M. The “BAF3-KDR (MIN IL3 Alamar Blue pIC50)” value in [9] came out at 5.40. Also, the IC50 in data set [10] was above 10000 nM. Moreover, the “BAF3-FGFR1 (MIN IL3 pIC50)” value in data set [11] was found to be 6.02.

As a reminder, the melting point is the temperature of the solid-liquid transition.
